Columns and labels:
[1] = test system: HCT116 TP53-knockout (TP53KO) cell line; experiment: MTT viability assay, HCT116 TP53-knockout, 96 h; assay type: cell-based, human
Protocol: (§1) removed and 100 µL DMSO was added to dissolve the formazan crystals. Photometric quantification was performed at 570 nm with a Multiskan Go 1510 photometer (Thermo Fisher […]
(§2) The absorbances were blank corrected and converted to relative proliferation. The IC50 values (concentration of 50% growth inhibition) were obtained using a sigmoidal fit of the experimental data and calculated as the mean ± standard deviation of at least three independent experiments, each in at least triplicates.
(§3) HCT116, HCT116 p53KO (each 2.000 cells/well) and CT-26 cells (500 cells/well) were seeded in 100 µL/well into flat-bottom 96-well plates (Starlab) and incubated at 37 °C for 96 h in a humidified incubator (Binder CB210) at 5% CO2. The test compound was dissolved in DMSO, serially diluted in the appropriate cell culture medium (see section above) to final DMSO concentrations of ≤0.5% v/v and 100 µL aliquots added to wells in triplicates. […] Optical densities were measured with a microplate reader (ELx808, Biotek) at a wavelength of 550 nm (and a reference wavelength of 690 nm) and blank corrected. […]
(§4) (each 3.000 cells/well) were seeded in 100 µL/well into flat-bottom 96-well plates (Starlab) and incubated at 37 °C for 24 h in a humidified incubator (Binder CB210) at 5% CO2. […] After 24 h of treatment, plates were measured by MTT assay as described above. […]

[2] = Histological evaluation of liver (H&E); assay type: in vivo, BALB/c mice; settings: 10 mg kg^−1 i.p., five consecutive days
Protocol: Liver tissue for histological assessment was fixed with formaldehyde and then paraffin-embedded. Haematoxylin and eosin (H&E) was used to stain tissue slices.
Animals. All experiments were carried out with male Balb/c mice according to the regulation of the Ethics Committee for the Care and Use of Laboratory Animals at the Medical University Vienna (BMWF-2022-0.770.291), the guidelines from the Austrian Animal Science Association and the Federation of European Laboratory Animal Science Associations (FELASA). The animals were kept in a pathogen-free conditions, controlled environment with 12 h light–dark cycle with ad libitum access to food and water. Every procedure was done in a laminar airflow […]
Treatment. CT-26 cells ([…] in 50 μL serum-free medium) were injected subcutaneously (s.c.) into the right flank of ten– to eleven-week-old male Balb/c mice. Three days after cell injection, all compounds (dissolved in 10% DMSO in water) were administered […]
1b/2b. Regarding anticancer activity experiments, mice were treated on 5 consecutive days over 2 weeks. Four hours after the last treatment 1a-treated mice were sacrificed and analysed for ruthenium levels in tissue via ICP-MS measurements. In case of the proteomic profiling […]
in water for 5 consecutive days. On the last day, 2 h after the last treatment, mice were euthanized, and blood was collected in an EDTA tube via heart punctation. […]

TP53 = experiment: Immunofluorescence staining of TP53; assay type: cell-based, human; settings: SW480, 24 h; 1a 1 μM; etoposide 100 nM
Protocol: (§5) Cell Signaling Technology (Danvers, MA, USA), respectively. Horseradish-peroxidase-linked secondary antibodies, anti-mouse IgG (Fc specific) antibody (#7076S) and anti-rabbit IgG antibody (#7074S) were purchased from Cell Signaling Technology (Danvers, MA, USA). Anti-ß-actin (AC-15) (A5441, 1:2000) was obtained from Sigma-Aldrich (St. Louis, MO, USA).
(§6) SW480 and CT26 cells were grown at a density of 6.7x10^4 cells/mL on 8-well glass coverslips (80841, ibidi GmbH, Gräfelfing, Germany) in 300 µL complete media. The next day, cells were treated with respective compounds for 24 h. Cells were fixed with 4%(v/v) paraformaldehyde for 15 min at RT, followed by washing, blocking and permeabilization with 5%(w/v) BSA and […]
(§7) (1 : 500) were diluted in 1% BSA-0.3% Triton-X-100 in PBS and incubated overnight at 4 °C.
(§8) One well was incubated without primary antibody as background control. Cells were washed and stained with secondary goat anti-mouse AlexaFlour-488 (1 : 500 dilution, A-11029, Thermo Fisher Scientific) or goat anti-rabbit AlexaFlour-488 (1 : 500 dilution, A-11034, Thermo Fisher Scientific) antibodies for 1 h at RT. Following, cells were stained with 0.2% Wheat Germ Agglutinin (WGA)-Rhodamine (RL-1022, Vector Laboratories, Inc.) and 0.1% DAPI (62248, Thermo Fisher Scientific) for staining of plasma membrane and nuclei, respectively, according to manufacturer’s recommendations. […]

[3] = Reactivity by NMR with 9-ethylguanine and methionine or cysteine; assay type: physicochemical; settings: 1 mM, equimolar nucleophiles, D2O/20% DMSO, up to 24 h
Protocol: Nevertheless, they are activated by hydrolysis of the most labile M–O bond (Fig. 2C).[48] Further hydrolysis releases the NQ ligand, because the free hemiaminal-containing NQ is unstable and the presence of biological nucleophiles accelerated NQ release.[48] […] The samples were analysed on a 500 MHz NMR spectrometer after 0 h, 1.5 h and 24 h. […] The aromatic proton of 9-ethylguanine was consistently found at 7.6 ppm.

[4] = test system: murine CT26 colon carcinoma cells; experiment: MTT viability assay, CT26, 96 h; assay type: cell-based; settings: wildtype TP53
Protocol: as §1, §2, §3, §4

[5] = test system: HCT116 TP53 wild-type (TP53WT); experiment: MTT viability assay, HCT116 TP53 wild-type, 96 h; assay type: cell-based, human
Protocol: as §1, §2, §3, §4

p21 = p21 expression, immunofluorescence, CT26; assay type: cell-based, murine; settings: 24 h, 1 μM
Protocol: as §5, §6, §7, §8

CCC1=C2[O][Ru][O]C2(n2cccn2)c2ccccc2C1=O.Cc1ccc(C(C)C)cc1 (stereo not shown) [Compound 1a, [(3-ethyl-4-oxo-(pyrazolyl)-dihydronaphthalene)(cymene)ruthenium(II)]]
IC50 [1]: 260 ± 10 nM
liver histology (H&E) [2]: largely healthy physiology
TP53 immunofluorescence signal (TP53): decisive loss of TP53 signal intensity
stability by NMR [3]: remained remarkably stable
IC50 [4]: 800 ± 150 nM
IC50 [5]: 130 ± 20 nM
p21 expression, CT26 (p21): significantly reduced p21 expression
